Results as given in publication PMC4965010 (PLoS ONE, 2016).
Where two headings read alike, the source gives them in different places. Marks after values point to notes of the source that are not given here.

Molecular target: T1, human FXIIIa (Homo sapiens, UniProt P00488)
T1 construct: purchased Haematologic Technologies (Essex Junction, VT)
T1 sequence (P00488 39-732 limits assumed): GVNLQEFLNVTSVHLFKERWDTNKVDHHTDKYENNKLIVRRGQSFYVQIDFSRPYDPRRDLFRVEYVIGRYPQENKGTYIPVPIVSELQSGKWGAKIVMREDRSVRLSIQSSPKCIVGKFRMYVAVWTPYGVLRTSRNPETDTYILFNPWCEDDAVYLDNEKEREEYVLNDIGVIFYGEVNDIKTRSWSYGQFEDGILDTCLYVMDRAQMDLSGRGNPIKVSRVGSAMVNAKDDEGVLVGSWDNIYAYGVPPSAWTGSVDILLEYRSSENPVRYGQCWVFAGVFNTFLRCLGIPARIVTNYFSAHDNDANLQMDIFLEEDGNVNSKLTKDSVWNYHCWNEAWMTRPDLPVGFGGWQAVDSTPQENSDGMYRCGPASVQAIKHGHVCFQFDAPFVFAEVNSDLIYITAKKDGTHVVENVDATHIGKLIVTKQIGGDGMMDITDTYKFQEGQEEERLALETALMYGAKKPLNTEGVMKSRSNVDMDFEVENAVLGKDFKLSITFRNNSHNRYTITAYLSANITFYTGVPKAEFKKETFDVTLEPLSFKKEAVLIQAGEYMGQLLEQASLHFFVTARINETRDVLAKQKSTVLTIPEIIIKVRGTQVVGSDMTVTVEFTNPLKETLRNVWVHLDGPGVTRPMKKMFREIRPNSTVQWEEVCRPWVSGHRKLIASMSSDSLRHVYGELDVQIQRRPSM
Assay: bisubstrate, fluorescence-based transglutamination assay (dansylcadaverine / N,N-dimethylcasein)
Type: biochemical
Details: pH 8.0, 37°C; for inhibition at 20 µM: pH 8, 20 μM
Procedure: The library of sulfated molecules was screened for inhibition of human FXIIIa using a modified bisubstrate, fluorescence-based transglutamination assay, as described earlier. Dansylcadaverine and N,N-dimethyl-casein were used as two substrates, which upon FXIIIa-dependence conjugation show a marked increase in fluorescence at 550 nm (λEX = 360 nm). Initial screening was performed at 200 μM NSGM concentration (1–15) or 50–1110 μM GAG concentration (16–22) (Table 1). At these levels, none of GAGs inhibited FXIIIa by more than 5%. […] Trimeric scaffolds 13 and 14 inhibited FXIIIa by 94% and 29%, respectively. […] To identify promising NSGMs from these, screening was performed at a lower concentration (20 μM).
Direct inhibition of human FXIIIa was measured spectrofluorometrically by a bisubstrate, fluorescence-based transglutamination assay at pH 8.0 and 37°C on a microplate reader (FlexStation III, Molecular Devices) (modified from earlier reports). Briefly, to each well of a 96-well microplate containing 80 μL of 50 mM TrisHCl buffer, pH 8.0, containing 100 mM NaCl, 10 mM CaCl2, and 2 mg/mL dimethylcasein was added 5 μL potential NSGM-based inhibitor (0–20 mM aqueous solution) or vehicle, 5 μL DTT (20 mM), and 5 μL enzyme (0.12–1.2 μM) at 37°C. After 5 min incubation, 5 μL of dansylcadaverine (2.5 mM) was rapidly added and the residual enzyme activity was measured from the initial rate of increase in RFU (λEM = 550 nm, λEX = 360 nm). Relative residual enzyme activity (Y) as a function of the concentration of sulfated molecule was fitted using logistic Eq 1 to obtain the potency (IC50), efficacy (ΔY) and Hill slope (HS) of inhibition. In this equation, YM and Yo are the maximal and minimal values of Y.

[1] = pH 8, 200 μM, read-out: FXIIIa inhibition at 200 μM (%)

| SMILES | inhibition at 20 µM [%] | inhibition at 200 µM [1] [%] | further results |
| --- | --- | --- | --- |
| O=c1c(OS(=O)(=O)O)c(-c2ccc(OS(=O)(=O)O)c(OS(=O)(=O)O)c2)oc2cc(OS(=O)(=O)O)cc(OC/C=C/COc3cc(OS(=O)(=O)O)cc4oc(-c5ccc(OS(=O)(=O)O)c(OS(=O)(=O)O)c5)c(OS(=O)(=O)O)c(=O)c34)c12 [Molecule 7] | 31 ± 3 | 58 ± 4 |  |
| NC(=O)CI [IAA, Iodoacetamide, reference compound] |  |  | HS, Hill slope (FXIIIa): 0.8 ± 0.2; IC50: 2900 ± 400 nM; ΔY, efficacy (FXIIIa): 105 ± 10%; ΔY, efficacy (FXIIIa) (listed as Iodoacetamide): ~ 100% |
| O=c1c(OS(=O)(=O)O)c(-c2ccc(OS(=O)(=O)O)c(OC/C=C/COc3cc(-c4oc5cc(OS(=O)(=O)O)cc(O)c5c(=O)c4OS(=O)(=O)O)ccc3OS(=O)(=O)O)c2)oc2cc(OS(=O)(=O)O)cc(O)c12 [Molecule 8] |  | 84 ± 5 |  |
| CO[C@H]1O[C@H](COS(=O)(=O)O)[C@@H](O[C@@H]2O[C@@H](C(=O)O)[C@@H](O[C@H]3O[C@H](COS(=O)(=O)O)[C@@H](O[C@@H]4O[C@H](C(=O)O)[C@@H](O[C@H]5O[C@H](COS(=O)(=O)O)[C@@H](O)[C@H](O)[C@H]5NS(=O)(=O)O)[C@H](O)[C@H]4O)[C@H](OS(=O)(=O)O)[C@H]3NS(=O)(=O)O)[C@H](O)[C@H]2OS(=O)(=O)O)[C@H](O)[C@H]1NS(=O)(=O)O [Molecule 18, fondaparinux, reference compound] |  |  | inhibition at 360 µM (pH 8, at 360 μM): ~0% |
| O=c1c(OS(=O)(=O)O)c(-c2ccc(OS(=O)(=O)O)c(OS(=O)(=O)O)c2)oc2cc(OS(=O)(=O)O)cc(OCCOc3cc(OS(=O)(=O)O)cc4oc(-c5ccc(OS(=O)(=O)O)c(OS(=O)(=O)O)c5)c(OS(=O)(=O)O)c(=O)c34)c12 [Molecule 3] | 27 to 40 | 65 ± 3 | FXIIIa inhibition at 20 μM (%) (20 μM): 26 ± 2% |
| O=c1c(OS(=O)(=O)O)c(-c2ccc(OS(=O)(=O)O)c(OS(=O)(=O)O)c2)oc2cc(OS(=O)(=O)O)cc(OCCCOc3cc(OS(=O)(=O)O)cc4oc(-c5ccc(OS(=O)(=O)O)c(OS(=O)(=O)O)c5)c(OS(=O)(=O)O)c(=O)c34)c12 [Molecule 4] |  | 67 ± 5 |  |
| O=c1c(OS(=O)(=O)O)c(-c2ccc(OS(=O)(=O)O)c(OS(=O)(=O)O)c2)oc2cc(OS(=O)(=O)O)cc(OS(=O)(=O)O)c12 [Molecule 1] |  |  | FXIIIa inhibition at 200 μM (%): 31 ± 4^b %; inhibition at 200 µM (pH 8, read-out: FXIIIa inhibition at 200 μM (%), 200 μM): ~30% |
| O=c1c(OS(=O)(=O)O)c(-c2ccc(OS(=O)(=O)O)c(OS(=O)(=O)O)c2)oc2cc(OS(=O)(=O)O)cc(OCCCCOc3cc(OS(=O)(=O)O)cc4oc(-c5ccc(OS(=O)(=O)O)c(OS(=O)(=O)O)c5)c(OS(=O)(=O)O)c(=O)c34)c12 [Molecule 6] | 40 ± 3 | 89 ± 5 |  |
| O=S(=O)(O)Oc1cc2c(c(OS(=O)(=O)O)c1)C[C@H](OS(=O)(=O)O)[C@@H](c1ccc(OS(=O)(=O)O)c(OS(=O)(=O)O)c1)O2 [Molecule 2] |  | ~30 | FXIIIa inhibition at 200 μM (%): 32 ± 6% |
| O=S(=O)(O)OC[C@H]1O[C@@](COS(=O)(=O)O)(O[C@H]2O[C@H](COS(=O)(=O)O)[C@@H](OS(=O)(=O)O)[C@H](OS(=O)(=O)O)[C@H]2OS(=O)(=O)O)[C@@H](OS(=O)(=O)O)[C@@H]1OS(=O)(=O)O [Molecule 22, sucrose octasulfate, reference compound] |  | ~17 |  |
